Data as given in patent publication EP2706118A1, “Method for the production of primary amines” (BASF SE, priority 2012, dated 2014).

Assay: Solubility in the aqueous reaction mixture (remark in reaction conditions)
Type: physicochemical
Details: ~10 mM in 20 mM bicine-buffer (pH 8.8), used an emulsion
Method: • ~10 mM BDG-Aldehyde (very low solubility, used an emulsion) • 10 mM L-alanine • 20 mM bicine-buffer (pH 8.8) • Cv ω-TA (0.75 mg) • Total volume: 1 ml • c) The conversion of BDG-alcohol to BDG-amine by ADH + ω-TAs was confirmed by LC-MS (Figure 3 C) and thin layer chromatography (Figure 4, lanes 1-3).

In the case of `CCCCOCCOCC=O` [BDG-Aldehyde], the solubility was “very low”.
